Test results reported in publication PMC6098011, “Insights into degradation mechanism of N-end rule substrates by p62/SQSTM1 autophagy adapter” (Nature Communications, 2018).
“Also recorded” adds a separate entry of the source.

Key:
[1] = target: T1, MBP-PB1-ZZ WT (p62 residues 1–181) (Homo sapiens, UniProt Q13501); assay: FP binding assay, MBP-PB1-ZZ WT
T1 construct: The PB1-ZZ-domain of p62 (residues 1–181) WT and various mutants were expressed as MBP-fused forms; made in house; host or cells: Escherichia coli BL21(DE3)
Protocol: The PB1-ZZ-domain of p62 (residues 1–181) WT and various mutants were expressed as MBP-fused forms. […] The ZZ-domain (residues 122–181) WT and various mutants were expressed as GST-fused forms.
FITC-labeled R-BiP/GRP78 peptide and all mutant peptides were dissolved to 1 mM concentration in buffers (50 mM MES pH 6.0 [or 50 mM Tris pH 8.0], 100 mM NaCl, and 1 mM DTT) and sequentially diluted with binding buffer up to 100 nM in each 40 μL reaction well. Purified GST-ZZ, MBP-PB1-ZZ WT and the respective mutants were also serially diluted in binding buffer and mixed into each reaction well at a concentration ranging from 400 nM to 3 mM. […] A nonlinear graph of p62 construct concentration-dependent polarization was calculated and drawn using GraphPad Prism 7 software.

[2] = tested on: degradation of R-BiP protein and p62 in HeLa cells; assay: Cycloheximide-chase protein degradation assay; type: cell-based; conditions: HA-p62 and Ub-R-BiP transfected, chloroquine 30 μM, 16 hr, 50 μg/ml cycloheximide 16 hr, immunoblotting
Protocol: HeLa cells were cultured in DMEM (HyClone) containing 10% FBS (HyClone) and 1% penicillin/streptomycin (HyClone). Cells were transiently transfected with plasmids using Lipofectamine 2000 (Invitrogen) for mammalian expression. For protein degradation analysis, HeLa cells at 80% confluence were transiently transfected with plasmids expressing HA-p62 (either WT or mutants) and Ub-R-BiP. For the blocking of protein synthesis, cells were treated with 50 μg/ml cycloheximide (Sigma-Aldrich) for […] prior to cell harvesting. Cultured cells were pelleted by centrifugation and pellets were resuspended in phosphate-buffered saline (PBS). A volume of 150 μl was then mixed with 150 μl of 5X SDS-PAGE loading buffer (125 mM Tris-HCl pH 6.8, 4% SDS, 10% 2-mercaptoethanol and 20% glycerol). Each sample was heated for 5 min and 0.1 mg of total protein was subjected to Western blotting. Following antibodies were used in this study: rabbit monoclonal anti-p62 (Cell Signaling Technology, 8025, 1:1000), rabbit polyclonal anti-R-BiP (Abfrontier, AR02-PA0001, 1:1000), mouse monoclonal anti-β-actin (Sigma-Aldrich, A5441, 1:20,000), rat monoclonal anti-HA (Roche, 1867431, 1:20,000), mouse monoclonal anti-His-HRP (Santa Cruz, sc-8036 HRP, 1:20,000) and mouse monoclonal anti-MBP-HRP (NEB, E8038S, 1:2000).
Supplementary Figure 7. Degradation assay of R-BiP and p62 protein […]

T1 sequence (Q13501 1-181): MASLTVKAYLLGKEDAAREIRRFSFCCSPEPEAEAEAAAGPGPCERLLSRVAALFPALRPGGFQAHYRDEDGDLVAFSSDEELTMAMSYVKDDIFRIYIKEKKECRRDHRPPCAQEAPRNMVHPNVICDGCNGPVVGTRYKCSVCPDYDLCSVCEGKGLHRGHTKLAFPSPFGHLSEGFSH

| Binding (dissociation constant) ([1]; pH 4.5) | Binding (dissociation constant) ([1]; pH 5.0) | Binding (dissociation constant) ([1]; pH 8.5) | Binding (dissociation constant) ([1]; pH 9.0) | Compound | Degradation of R-BiP protein and p62 [2] |
| --- | --- | --- | --- | --- | --- |
| not detected | not detected | not detected | not detected | N=C(N)NCCC[C@H](N)C(=O)N[C@@H](CCC(=O)O)C(=O)N[C@@H](CCC(=O)O)C(=O)N[C@@H](CCC(=O)O)C(=O)N[C@@H](CC(=O)O)C(=O)N[C@@H](CCCCNC(=S)Nc1ccc2c(c1)C(=O)OC21c2ccc(O)cc2Oc2cc(O)ccc21)C(=O)O [R-BiP peptide] | – |
| – | – | – | – | CCN(CC)CCCC(C)Nc1ccnc2cc(Cl)ccc12 (centres unmarked) [chloroquine] | blocked; also recorded: not degraded |
